Where two headings read alike, the source gives them in different places.
Columns and labels:
[1] = target: T1, human thyroid receptor beta ligand-binding domain (LBD) (Homo sapiens, UniProt P10828); assay: TR-FRET thyroid receptor beta coactivator assay (THR biochemical assay, Assay 1); details: for EC50: THR-beta, TR-FRET coactivator assay, read-out: Activity category Assay 1 (EC50, THR-beta agonist); for Emax: read-out: Activity category Assay 1 THRβ (Emax)
T1 construct: purchased Invitrogen
T1 sequence (P10828 217-461 limits assumed): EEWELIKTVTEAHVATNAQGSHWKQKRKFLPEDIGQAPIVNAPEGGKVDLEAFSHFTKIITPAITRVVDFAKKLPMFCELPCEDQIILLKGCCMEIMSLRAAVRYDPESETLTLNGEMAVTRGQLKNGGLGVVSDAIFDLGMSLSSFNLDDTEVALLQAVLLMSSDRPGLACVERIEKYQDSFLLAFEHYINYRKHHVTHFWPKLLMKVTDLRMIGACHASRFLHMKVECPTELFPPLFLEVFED
Outline: (§1)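 GST-tagged human TRβ or TRα LBD, 1 nM final (stated for β), with fluorescein-SRC2-2 coactivator peptide (200 nM) and Tb-anti-GST antibody (2 nM). Agonists serially diluted, 1% DMSO final. 1 h incubation at rt in the dark; TR-FRET read as rise in fluorescein and drop in terbium emission.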

[2] = target: T2, human thyroid receptor alpha ligand-binding domain (LBD) (Homo sapiens, UniProt P10827); assay: TR-FRET thyroid receptor alpha coactivator assay (THR biochemical assay, Assay 1); details: for EC50: Table 4, THR-alpha, read-out: Activity category Assay 1 (EC50, THR-alpha agonist activity); for Emax: Table 5, THRα, read-out: Activity category Assay 1 THRα (Emax)
T2 construct: purchased Invitrogen
Outline: as §1

THR beta = target: T3, THR beta (Homo sapiens, UniProt P10828); assay: HEK293T THR beta/RXR luciferase reporter assay (Assay 2); type: cell-based; details: for Emax: HEK-293T, read-out: Activity category Assay 2 THRβ (Emax); for EC50: THR-beta, HEK293T reporter assay, read-out: Activity category Assay 2 (EC50, THR-beta agonist)
T3 construct: expressed in transfected cells; host or cells: HEK293T (ATCC CRL-3216)
T3 sequence (P10828 1-461): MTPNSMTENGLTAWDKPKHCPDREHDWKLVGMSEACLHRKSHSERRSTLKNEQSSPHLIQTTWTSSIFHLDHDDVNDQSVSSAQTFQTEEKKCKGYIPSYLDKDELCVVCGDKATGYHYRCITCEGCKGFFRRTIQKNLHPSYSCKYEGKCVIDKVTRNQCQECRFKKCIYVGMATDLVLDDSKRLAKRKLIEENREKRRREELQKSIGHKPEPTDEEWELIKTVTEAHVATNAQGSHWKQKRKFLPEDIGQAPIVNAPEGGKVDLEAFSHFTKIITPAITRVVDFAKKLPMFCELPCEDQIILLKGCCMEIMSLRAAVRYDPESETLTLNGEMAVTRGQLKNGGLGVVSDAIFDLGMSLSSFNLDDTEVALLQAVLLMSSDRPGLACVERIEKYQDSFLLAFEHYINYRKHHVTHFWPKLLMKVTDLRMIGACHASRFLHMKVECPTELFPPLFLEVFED
T3 sequence (P19793 1-462 partner): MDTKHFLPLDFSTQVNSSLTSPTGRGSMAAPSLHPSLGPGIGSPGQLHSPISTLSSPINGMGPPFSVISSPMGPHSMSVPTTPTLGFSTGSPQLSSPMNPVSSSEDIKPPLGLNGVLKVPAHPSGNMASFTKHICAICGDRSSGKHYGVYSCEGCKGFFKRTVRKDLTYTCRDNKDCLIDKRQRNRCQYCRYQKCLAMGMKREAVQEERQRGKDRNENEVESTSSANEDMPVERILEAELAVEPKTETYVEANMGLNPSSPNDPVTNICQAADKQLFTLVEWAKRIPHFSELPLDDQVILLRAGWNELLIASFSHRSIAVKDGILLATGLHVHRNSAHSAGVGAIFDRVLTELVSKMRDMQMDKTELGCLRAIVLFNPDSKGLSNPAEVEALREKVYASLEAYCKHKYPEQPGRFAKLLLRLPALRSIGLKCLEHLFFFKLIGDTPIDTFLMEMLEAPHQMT
Outline: (§2)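 HEK293T cells transiently transfected with TRE-luciferase reporter, RXR, and THR alpha or THR beta plasmid; ten five-fold compound dilutions from DMSO added for 18-24 h. One-Glo luminescence read; percent agonism normalized between negative and positive controls.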

THR alpha = target: T4, THR alpha (Homo sapiens, UniProt P10827); assay: HEK293T THR alpha/RXR luciferase reporter assay (Assay 2); type: cell-based; details: Assay 2; for Emax: HEK-293T, Table 5, THRα, read-out: Activity category Assay 2 THRα (Emax); for EC50: Table 4, THR-alpha, read-out: Activity category Assay 2 (EC50, THR-alpha agonist activity)
T4 construct: expressed in transfected cells; host or cells: HEK293T (ATCC CRL-3216)
T4 sequence (P10827 1-410 isoform P10827-2): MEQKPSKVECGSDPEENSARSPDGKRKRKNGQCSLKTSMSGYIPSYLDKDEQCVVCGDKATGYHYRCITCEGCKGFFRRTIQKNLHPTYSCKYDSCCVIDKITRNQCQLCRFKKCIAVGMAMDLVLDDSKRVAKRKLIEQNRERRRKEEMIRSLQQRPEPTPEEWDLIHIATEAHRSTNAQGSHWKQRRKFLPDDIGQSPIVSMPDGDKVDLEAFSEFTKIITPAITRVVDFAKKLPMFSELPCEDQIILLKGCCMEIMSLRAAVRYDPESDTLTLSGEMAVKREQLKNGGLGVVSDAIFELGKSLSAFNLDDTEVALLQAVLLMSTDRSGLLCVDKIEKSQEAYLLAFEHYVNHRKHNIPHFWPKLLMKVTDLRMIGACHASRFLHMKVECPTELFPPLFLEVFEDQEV
T4 sequence (P19793 1-462 partner): T3 sequence (P19793 1-462 partner)
Outline: as §2

Row | SMILES | EC50 [1] [nM] | Emax ([1]; Table 5, Assay 1, THRβ) [%] | EC50 [2] [nM] | Emax [2] [%] | Emax (THR beta; Table 5, Assay 2, THRβ) [%] | EC50 (THR beta) [nM] | Emax (THR alpha) [%] | EC50 (THR alpha) [nM] | Emax [1] [%] | Emax (THR beta) [%]
1 | Cc1cc(-n2nc(N)c(=O)[nH]c2=O)cc(C)c1Cc1ccc2c(c1)C1(CCCC1)C(=O)N2 [Compound 150, 6-Amino-2-(3,5-dimethyl-4-((2′-oxospiro[cyclopentane-1,3′-indolin]-5′-yl)methyl)phenyl)-1,2,4-triazine-3,5(2H,4H)-dione] | < 50 | < 50 | < 50 | < 50 | 50 to 75 | < 50 | 50 to 75 | < 50 |  | 
2 | Nc1nn(-c2cc(Cl)c(Oc3cc(-c4cccc(OC(F)F)c4)c(=O)[nH]n3)c(Cl)c2)c(=O)[nH]c1=O [Compound 118] | < 50 | 50 to 75 | 50 to 250 | < 50 | 50 to 75 | < 50 | 50 to 75 | 50 to 250 |  | 
3 | Nc1nn(-c2cc(Cl)c(Oc3cc(C4CCC(F)(F)CC4)c(=O)[nH]n3)c(Cl)c2)c(=O)[nH]c1=O [Compound 97] | 250 to 1000 | < 50 | 1000 to 25000 | < 50 | < 50 | 1000 to 10000 | < 50 | > 10000 |  | 
4 | CC(C)(C)c1cc(Oc2c(Cl)cc(-n3nc(N)c(=O)[nH]c3=O)cc2Cl)n[nH]c1=O [Compound 73, 6-Amino-2-(4-((5-(t-butyl)-6-oxo-1,6-dihydropyridazin-3-yl)oxy)-3,5-dichlorophenyl)-1,2,4-triazine-3,5(2H, 4H)-dione] | 50 to 250 | < 50 | 250 to 1000 | 50 to 75 | > 75 | 50 to 250 | > 75 | 250 to 1000 |  | 
5 | Cc1cc(-n2ncc(=O)[nH]c2=O)cc(C)c1Cc1ccc2c(c1)C1(CC1)C(=O)N2 [Compound 152, 2-(3,5-dimethyl-4-((2′-oxospiro[cyclopropane-1,3′-indolin]-5′-yl)methyl)phenyl)-1,2,4-triazine-3,5(2H,4H)-dione] | < 50 | < 50 | < 50 | 50 to 75 | 50 to 75 | < 50 | 50 to 75 | < 50 |  | 
6 | O=c1cc(-c2ccc3ccccc3c2)c(Oc2c(Cl)cc(-n3ncc(=O)[nH]c3=O)cc2Cl)n[nH]1 [Compound 92-A] | < 50 | < 50 | 1000 to 25000 | 50 to 75 | < 50 | 250 to 1000 | < 50 | > 10000 |  | 
7 | CC1(C)CN(c2cc(Oc3c(Cl)cc(-n4nc(N)c(=O)[nH]c4=O)cc3Cl)n[nH]c2=O)C1 [Compound 159, 6-amino-2-(3,5-dichloro-4-[[5-(3,3-dimethylazetidin-1-yl)-6-oxo-1H-pyridazin-3-yl]oxy]phenyl)-4H-1,2,4-triazine-3,5-dione] | 50 to 250 | < 50 | 250 to 1000 | < 50 | 50 to 75 | 50 to 250 | < 50 | 1000 to 10000 |  | 
8 | Nc1nn(-c2cc(Cl)c(Oc3cc(-c4ccccc4)c(=O)[nH]n3)c(Cl)c2)c(=O)[nH]c1=O [Compound 63, 6-amino-2-[3,5-dichloro-4-[(6-hydroxy-5-phenylpyridazin-3-yl)oxy]phenyl]-4H-1,2,4-triazine-3,5-dione] | 50 to 250 | < 50 | 250 to 1000 | < 50 | > 75 | 50 to 250 | 50 to 75 | 250 to 1000 |  | 
9 | N#Cc1nn(-c2cc(Cl)c(Oc3ccc4[nH]cc(CC5CC5)c4c3)c(Cl)c2)c(=O)[nH]c1=O [Compound 50, 2-(3,5-dichloro-4-[[3-(cyclopropylmethyl)-1H-indol-5-yl]oxy]phenyl)-3,5-dioxo-4H-1,2,4-triazine-6-carbonitrile] | < 50 | 50 to 75 | < 50 | 50 to 75 | > 75 | 50 to 250 | > 75 | 250 to 1000 |  | 
10 | CC(c1cc(Oc2c(Cl)cc(-n3nc(N)c(=O)[nH]c3=O)cc2Cl)n[nH]c1=O)C1CC(F)(F)C1 (stereo not shown) [Compound 61, 6-amino-2-[3,5-dichloro-4-([5-[1-(3,3-difluorocyclobutyl)ethyl]-6-oxo-1H-pyridazin-3-yl]oxy)phenyl]-4H-1,2,4-tri-azine-3,5-dione] | < 50 | < 50 | 250 to 1000 | 50 to 75 | > 75 | 50 to 250 | > 75 | 250 to 1000 |  | 
11 | CC(c1c[nH]c2ccc(Oc3c(Cl)cc(-n4nc(C#N)c(=O)[nH]c4=O)cc3Cl)cc12)C(F)(F)F (stereo not shown) [Compound 45, 2-(3,5-dichloro-4-[[3-(1,1,1-trifluoropropan-2-yl)-1H-indol-5-yl]oxy]phenyl)-3,5-dioxo-4H-1,2,4-triazine-6-carbonitrile] | < 50 | < 50 | < 50 | < 50 | > 75 | 50 to 250 | > 75 | 250 to 1000 |  | 
12 | COC(=O)c1c[nH]c2ccc(Oc3c(Cl)cc(-n4nc(C#N)c(=O)[nH]c4=O)cc3Cl)cc12 [Compound 4, methyl 5-[2,6-dichloro-4-(6-cyano-3,5-dioxo-4H-1,2,4-triazin-2-yl)phenoxy]-1H-indole-3-carboxylate] | < 50 |  | > 25000 | < 50 |  | 1000 to 10000 | 50 to 75 | > 10000 | < 50 | > 75
13 | N#Cc1nn(-c2cc(Cl)c(Oc3ccc4[nH]cc(C5CCCC5)c4c3)c(Cl)c2)c(=O)[nH]c1=O [Compound 5, 2-[3,5-dichloro-4-[(3-cyclopentyl-1H-indol-5-yl)oxy]phenyl]-3,5-dioxo-4H-1,2,4-tri-azine-6-carbonitrile] | < 50 | < 50 | > 25000 | < 50 | > 75 | 250 to 1000 | 50 to 75 | 1000 to 10000 |  | 
14 | CC1(C)C(=O)Nc2nnc(Oc3c(Cl)cc(-n4nc(C#N)c(=O)[nH]c4=O)cc3Cl)cc21 [Compound 74, 2-[3,5-dichloro-4-[(5,5-dimethyl-6-oxo-7H-pyrrolo[2,3-c]pyridazin-3-yl)oxy]phenyl]3,5-dioxo-1,2,4-triazine-6-carbonitrile] | 1000 to 25000 | 50 to 75 | 1000 to 25000 | < 50 | < 50 | > 10000 | < 50 | > 10000 |  | 

Reference: patent US12180192B2, “Modulators of THR-β and methods of use thereof” (ALIGOS THERAPEUTICS, INC., priority 2019, dated 2024)
